Patent US8685934B2, “Methods for treating extreme insulin resistance in patients resistant to previous treatment with other anti-diabetic drugs employing an SGLT2 inhibitor and compositions thereof” (Bristol-Myers Squibb Company, priority 2009, dated 2014)
Read-outs that look alike come from different tables or passages of the source.

Assays:
[1] = tested on: highly insulin-resistant T2DM patients poorly controlled with insulin plus metformin and/or thiazolidinediones; details: for Adverse events, % of patients: placebo 65.2%; for Patients with genital tract infections: double-blind period, placebo one; for Events of pollakiuria, patients: placebo four patients; for Patients who reported episodes of hypoglycemia: placebo three patients
Text: (§1) This was a randomized, single- and double-blind, three-arm parallel group, placebo-controlled trial to determine if dapagliflozin effectively lowers hyperglycemia in highly insulin-resistant T2DM patients poorly controlled with insulin plus metformin and/or thiazolidinediones. The trial consisted of a qualification period of 10 to 21 days, a treatment phase of 12 weeks, and a follow-up phase of 4 weeks. During qualification and until day 1, patients maintained their stable dose of open-label OADs, as well as their stable dose of prescribed insulin.
(§2) The treatment phase utilized an adaptive trial design with two cohorts: Cohort 1, the insulin dose-setting group; and Cohort 2, the main experimental group. The purpose of Cohort 1 was to determine the ideal starting dose of insulin least likely to cause hypoglycemia when dapagliflozin would be added. In Cohort 1, four patients were assigned to 20 mg single-blind dapagliflozin on day 1 after having their insulin dose decreased by 50%, the greatest decrement possible in this adaptive design. These patients underwent 48-hour continuous blood glucose monitoring (CGM) during the first week of treatment. Pursuant to the protocol, if at least one patient recorded a CGM value ≦100 mg/dL, confirmed by self-monitoring of blood glucose (SMBG), the total daily insulin dose for patients in Cohort 2 would be set at 50% of their usual dose that is, at an average of 52 to 54 units of insulin daily, and lesser dose reductions of insulin would not be tested. […] Patients in Cohort 2 were randomized on day 1 in a 1:1:1 ratio to double-blind placebo, 10 mg dapagliflozin or 20 mg dapagliflozin once daily, in addition to their open-label OAD(s) and 50% of their usual daily insulin, that is an average of 52 to 54 units of insulin daily.
Patients were scheduled for visits at weeks 1, 2, 4, 6, 8, 10, and 12 of treatment, and performed SMBG 5 times daily during the 3 to 5 days prior to visits. No dose modifications of blinded study medication or OAD(s) were allowed during the treatment phase. Guidelines were in place throughout the trial for managing hypo- and hyperglycemia. […] Additional down-titration could be implemented as clinically indicated to manage the risk of hypoglycemia.
(§3) Safety outcomes were assessed by treatment-emergent adverse events, vital signs, ECGs and laboratory measurements, including 24-hour urine collections for volume and electrolytes.

[2] = tested on: highly insulin-resistant T2DM patients poorly controlled with insulin plus metformin and/or thiazolidinediones; details: for 24-hour urinary glucose, increase / Standing diastolic blood pressure, mean change / Standing systolic blood pressure, mean change / Serum hematocrit, median increase from baseline / Urinary glucose excretion, mean change from baseline: week 12; for Glomerular filtration rate, change compared to baseline: end of treatment; for Urinary glucose excretion, mean change from baseline: placebo −1.5
Text: as §1, §2, §3

[3] = tested on: highly insulin-resistant T2DM patients poorly controlled with insulin plus metformin and/or thiazolidinediones
Protocol: Criteria for management of hyperglycemia were determined by fasting plasma glucose (FPG) measurements. For any FPG level >240 mg/dL at weeks 4 and 6, >220 mg/dL at week 8, or >200 mg/dL at week 10, the patient would be scheduled for a follow-up visit in 3 to 5 days. If FPG was still above the threshold at follow-up, a visit was scheduled in order to increase the insulin dose as clinically indicated. Patients who further lacked glycemic control despite up-titration, or whose modified insulin dose exceeded baseline, were discontinued from blinded treatment and entered into follow-up.
All patients were on insulin-sensitizer therapy for at least 6 weeks prior to enrollment and insulin-based therapy for at least 12 weeks prior to enrollment. The study protocol defined insulin-sensitizer therapy as metformin (stable dose ≧1000 mg) and/or pioglitazone (stable dose ≧30 mg) or rosiglitazone (stable dose 4 mg). Insulin-based therapy was defined as subcutaneous insulin for at least 12 weeks prior to enrollment, with 2 minimum insulin daily dose equivalent to 50 units (median 85 to 93 units across all study arms) of U100 insulin per day. The insulin regimen must have been stable for at least 6 weeks. In addition to 10 mg dapagliflozin or 20 mg dapagliflozin daily or placebo, 74.6% of patients received metformin (≧1000 mg daily) plus insulin; 16.9% of patients received metformin (≧1000 mg daily) plus pioglitazone (≧30 mg daily) or rosiglitazone (4 mg daily) plus insulin and 8.5% of patients received pioglitazone (≧30 mg daily) or rosiglitazone (4 mg daily) plus insulin.
Patients in Cohort 1 were evaluated for safety only. Patients in Cohort 2 were evaluated for safety and efficacy. The primary efficacy measure was change from baseline in HbAlc, at week 12, last observation carried forward (LOCF). If no week 12 assessment was available, the last observation prior to week 12 was used. Secondary efficacy measures included changes from baseline at week 12 (LOCF) in FPG and insulin dose, the proportion of patients achieving a decrease in HbAlc>0.5% from baseline at week 12 (LOCF), and the proportion of patients achieving HbAlc<7% at week 12 (LOCF). Tertiary endpoints included changes from baseline in total body weight and in postprandial glucose (PPG) measured by an oral glucose tolerance test (OGTT).
Patients in Cohort 2 were evaluated for safety and efficacy. The primary efficacy measure was change from baseline in HbAlc at week 12, last observation carried forward (LOCF). The analysis was done excluding data after up-titration of insulin. If no week 12 assessment was available, the last observation prior to week 12 was used.
For Cohort 2, the sample size target of 22 patients per treatment group was chosen to allow for the calculation of 95% confidence intervals for the primary endpoint with a half-width of 0.42% for each treatment group. This assumed a 1% standard deviation for the primary endpoint in each of the dapagliflozin and placebo arms. With the same assumption, the half-width of a 95% confidence interval for the difference between any two treatment mean changes was estimated to be 0.59%. The primary efficacy data set consisted of all randomized patients who took at least one dose of double-blind study medication during the treatment phase. The analyses of the efficacy variables (except change from baseline in insulin dose) were done excluding data after up-titration of insulin. The analyses for changes from baseline in HbAlc, FPG, insulin dose, and total body weight at week 12 (LOCF) were performed using an analysis of covariance (ANCOVA) model with treatment group as an effect and baseline value as a covariate. Point estimates and 95% confidence intervals were calculated for mean changes within each treatment group and for differences in mean changes between the dapagliflozin and placebo groups.

[4] = Dapagliflozin 10 mg + insulin + OAD, excludes data after insulin up-titration
[5] = Dapagliflozin 10 mg + insulin + OAD, week 12 LOCF

Structure (SMILES): CCOc1ccc(Cc2cc([C@@H]3O[C@H](CO)[C@@H](O)[C@H](O)[C@H]3O)ccc2Cl)cc1 [Dapagliflozin, (2S,3R,4R,5S,6R)-2-(4-chloro-3-(4-ethoxybenzyl)phenyl)-6-(hydroxymethyl)tetrahydro-2H-pyran-3,4,5-triol]
- Adverse events, % of patients ([1]; 10 mg dapagliflozin arm): 75.0%
- Patients with genital tract infections ([1]; 10 mg dapagliflozin group): none
- Events of pre-renal azotemia ([1]; 10 mg dapagliflozin, patient on enalapril, carvedilol and furosemide, discontinued after eleven days, resolved with oral rehydration): One
- Events of pollakiuria, patients ([1]; 10 mg dapagliflozin): two
- Adverse events, % of patients ([1]; 20 mg dapagliflozin arm): 66.7%
- Patients who reported episodes of hypoglycemia ([1]; 20 mg dapagliflozin group (n = 24)): six
- Patients with genital tract infections ([1]; 20 mg dapagliflozin group): five
- Events of pollakiuria, patients ([1]; 20 mg dapagliflozin): three
- Patients who reported polyuria ([1]; dapagliflozin 10 mg arm): One
- Patients with adverse events that led to discontinuation ([1]; dapagliflozin 10 mg arm): One
- Patients who reported episodes of hypoglycemia ([1]; dapagliflozin 10 mg group (n = 24)): seven
- Cases of microalbuminuria (resulted in discontinuation from the study) ([1]; dapagliflozin 20 mg arm): One
- Patients who reported polyuria ([1]; dapagliflozin 20 mg arm): One
- Patients with adverse events that led to discontinuation ([1]; dapagliflozin 20 mg arm): One
- Patients who experienced a serious adverse event ([1]; dapagliflozin 20 mg group): one
- Patients who reported a urinary tract infection ([1]; dapagliflozin 20 mg group): One
- Total hypoglycemic events versus placebo, in words ([1]; major/minor episodes were balanced across all groups): more frequently reported with dapagliflozin treatment than with placebo
- Deaths, in words ([1]; whole study): no deaths
- 24-hour urinary glucose, increase ([2]; 10 mg dapagliflozin): ~85 grams per day
- Standing diastolic blood pressure, mean change ([2]; 10 mg dapagliflozin): −1.2 mm Hg
- Standing systolic blood pressure, mean change ([2]; 10 mg dapagliflozin): −7.2 mm Hg
- Supine diastolic blood pressure, mean change ([2]; 20 mg dapagliflozin): −5.8 mm Hg
- Supine systolic blood pressure, mean change ([2]; 20 mg dapagliflozin): −5.5 mm Hg
- 24-hour urinary glucose, increase ([2]; 20 mg dapagliflozin): ~85 grams per day
- Standing diastolic blood pressure, mean change ([2]; 20 mg dapagliflozin): −3.9 mm Hg
- Standing systolic blood pressure, mean change ([2]; 20 mg dapagliflozin): −6.1 mm Hg
- Serum uric acid, median change from baseline ([2]; dapagliflozin 10 mg): -0.30 mg/dL
- Glomerular filtration rate, change compared to baseline ([2]; dapagliflozin 10 mg): −0.84 mL/min/1.73 m^2
- Mean 24-hour urine output on treatment ([2]; dapagliflozin 10 mg, increased from 1921.0 mL at baseline): 2285.8 mL
- Serum hematocrit, median increase from baseline ([2]; dapagliflozin 10 mg): 2.5%
- Urinary glucose excretion, mean change from baseline ([2]; dapagliflozin 10 mg): 83.5 g/24 h
- Serum uric acid, median change from baseline ([2]; dapagliflozin 20 mg): -0.30 mg/dL
- Glomerular filtration rate, change compared to baseline ([2]; dapagliflozin 20 mg): 1.45 mL/min/1.73 m^2
- Mean 24-hour urine output on treatment ([2]; dapagliflozin 20 mg, increased from 1808.8 mL at baseline): 2253.1 mL
- Serum hematocrit, median increase from baseline ([2]; dapagliflozin 20 mg): 3.05%
- Urinary glucose excretion, mean change from baseline ([2]; dapagliflozin 20 mg): 85.2 g/24 h
- Reductions in HbAlc and improvements over placebo in FPG and PPG, dose relation, in words ([3]; 10 and 20 mg dapagliflozin): dose-dependent
- Change from baseline in total daily insulin dose, in words ([3]; Cohort 2, week 12): no appreciable change
- Fasting plasma glucose, mean (SD), End of Double-blind (Week 12 LOCF) [3, 4]: 160.5 (38.7) mg/dL
- Weight, mean (SD), End of Double-blind (Week 12 LOCF) [3, 4]: 98.2 (9.4) kg
- Total daily insulin dose, mean (SD), End of Double-blind (Week 12 LOCF) ([3]; Dapagliflozin 10 mg + insulin + OAD, includes data after insulin up-titration, U = units of U100 insulin): 51.3 (20.1) U
- Postprandial glucose, mean (SD), End of Double-blind (Week 12 LOCF) ([3]; Dapagliflozin 10 mg + insulin + OAD, measured at 120 minutes by OGTT, excludes data after insulin up-titration): 286.0 (55.1) mg/dL
- Fasting plasma glucose change from baseline, difference vs placebo + insulin + OAD, mean (95% CI) [3, 5]: −15.4 (−38.4 to 7.5) mg/dL
- HbA1c change from baseline, difference vs placebo + insulin + OAD, mean (95% CI) [3, 5]: −0.70 (−1.08 to −0.32) %
